Patent US6858574B2, “Process for making perfume containing surfactant compositions having perfume burst when diluted” (Unilever Home & Personal Care USA, division of Conopco, Inc., priority 2002, dated 2005)
Read-outs that look alike come from different tables or passages of the source. Marks after values point to notes of the source that are not given here. Blank lines part the entries; values can stand above or below the molecule they belong to.

How the values were obtained:
[1] = Fragrance burst (perfume headspace) of single perfumes in 5% sodium laurate shower product diluted through the CMC; format: physicochemical; details: diluted through the CMC (FIG. 3)
Protocol: It is precisely this “burst” or increase in headspace (e.g., from start of dilution up until CMC) and methods for determining in what compositions it will occur that is the basis of the subject invention.
Several different fragrance molecules were tested experimentally to validate the theoretical predictions. Limonene, p-cymene, α-pinene, tetrahydrolinolool, α-ionone, γ-methyl ionone, benzyl acetate and 2-phenoxylethanol were tested in a 5% sodium laurate shower product and diluted a number of times through the CMC (FIG. 3).

[2] = GC headspace vs dilution of components of a perfume mixture in 5 wt. % sodium laurate formulation; format: physicochemical; details: twelve-component perfume mixture, 5 wt. % sodium laurate (FIG. 9)
Protocol: A typical fully formulated perfume used in a commercial product, e.g., personal wash formulation, usually is a multi-component composition in which the properties of each perfume component can vary dramatically. A typical perfume mixture in a 5 wt. % sodium laurate formulation was tested for its “perfume burst” behaviour upon dilution. […] Each component has a unique dilution curve (GC headspace vs. dilution factor) governed by the factors (hydrophobicity, volatility, etc) discussed previously.

[3] = cited from earlier work
[4] = Critical micellization concentration (CMC) of surfactants; format: physicochemical
Excerpt: As noted, the perfume burst is affected not only by the perfume properties, but also by properties of the formulation in which the perfume is found. Thus, the number and type of surfactant micelles found in a surfactant solution also has an effect. […] The critical micellization concentration is defined as the surfactant concentration at which micelles begin to form from unassociated surfactant monomers (M. J. Rosen, Surfactants and Interfacial Phenomena, 2nd Ed., 1989). Conversely, in a surfactant with low critical micelle concentration (e.g., one where micelles do form easily or, stated differently, don't break apart as readily once formed), a perfume, being generally more hydrophobic, tends to stay in the surfactant more readily. As a result, the perfume will tend not to “burst” (increase perfume headspace) as readily and, to achieve more headspace, more dilution may be required. The CMC of the surfactant system also affects “perfume burst”. Thus, for example, a surfactant system of relatively low CMC (e.g., sodium lauryl ether sulfate, also known as SLES) lowers the PBI and can greatly reduce the expected “perfume burst” on dilution. By contrast, surfactant system of relatively higher CMC (e.g., sodium laurate compared to SLES) would raise PBI and can thus increase “perfume burst” on dilution.

[5] = Fragrance burst in shower liquids with different surfactant concentrations; format: physicochemical; details: sodium laurate at 5, 10, 15 (20) wt. % (FIG. 6)
[6] = Fragrance burst in shower liquids with surfactants of different CMC; format: physicochemical; details: 5% sodium laureth sulfate (CMC=0.0011) vs 5% sodium laurate (CMC=0.005) (FIG. 8)
Protocol: Limonene and γ-Methyl Ionone were tested in two different shower liquid samples. One product was formulated with 5% sodium laurate (CMC=0.005 wt/wt) and the second with 5% sodium laureth sulfate (CMC=0.0011 wt/wt) (FIG. 8).

fragrance burst [1]: no fragrance burst at all
Molecule: CC(=O)OCc1ccccc1 [Benzyl Acetate]
dilution behaviour of component (GC headspace) [2]: perfume headspaces decrease upon dilution

CMC (wt./wt.) [4]: 0.00032 wt./wt.
Molecule: CCCCCCCC(=O)NCCC[N+](C)(C)CC(=O)[O-] [Caprylamidopropyl betaine]

fragrance burst [1]: 320%
Molecule: CCC(C)(O)CCCC(C)C (centres unmarked) [Tetrahydrolinolool]

fragrance burst [1]: 120%
Molecule: Cc1ccc(C(C)C)cc1 [p-Cymene]

fragrance burst [1]: 50%
Molecule: CC1=CCC2CC1C2(C)C (stereo not drawn) [α-pinene]

fragrance burst [1]: 460% | effect of surfactant CMC on fragrance burst [6]: lower overall fragrance burst | dilution behaviour of component (GC headspace) [2]: as high as seven times
Molecule: CC(=O)/C(C)=C/C1C(C)=CCCC1(C)C (centres unmarked) [γ-methyl ionone]
effect of surfactant concentration on fragrance burst [5]: maximum fragrance burst is reached with fewer dilutions in the 5% soap product

Second part, the molecule before the results:

Molecule: OCCOc1ccccc1 [2-Phenoxyethanol]
fragrance burst [1]: no fragrance burst at all

Molecule: CCCCCCCCCCCCOC(=O)CCS(=O)(=O)[O-].[Na+] [C12H25OOC(CH2)2SO3^−Na^+ (SCI)]
CMC (wt./wt.) ([3]; 30° C.): 0.00076* (30° C.) wt./wt.

Molecule: C=C(C)[C@H]1CC=C(C)CC1 [Limonene]
fragrance burst [1]: ~95% | effect of surfactant concentration on fragrance burst [5]: maximum fragrance burst is reached with fewer dilutions in the 5% soap product | effect of surfactant CMC on fragrance burst [6]: lower overall fragrance burst

Molecule: CC(C)[C@@H]1CC[C@@H](C)CC1=O [Menthone]
effect of surfactant concentration on fragrance burst [5]: maximum fragrance burst is reached with fewer dilutions in the 5% soap product

Molecule: CCCCCCCCCCCC(=O)[O-].[Na+] [Sodium laurate]
CMC ([3]; Example 9): 0.005 wt/wt | CMC ([3]; Example 11): 0.5 wt. %

Molecule: CC(=O)/C=C/C1C(C)=CCCC1(C)C (stereo not drawn) [α-ionone]
fragrance burst [1]: 430%

Molecule: Sodium laureth sulfonate (2EO)
CMC (wt./wt.) ([3]; 50° C.): 0.0011*** wt./wt. | CMC ([3]; Example 9): 0.0011 wt/wt | CMC ([3]; Example 11): 0.1 wt. %

Molecule: Sodium laureth sulfonate (3EO)
CMC (wt./wt.) ([3]; 50° C.): 0.00084*** wt./wt.
